According to patent US20230219956A1 (BETTA PHARMACEUTICALS CO.,LTD, priority 2019, published 2023):

Columns and labels:
H358 cells = test: Cell proliferation assay, H358 cells (Cell-titer Glo); type: cell-based; details: Homo sapiens, NCI-H358, 96 h incubation
Protocol: (§1) Pave the H358 cells on a 96-well ultra-low adsorption plate with 2000 cells and 190 μL/well. After incubating overnight, compound solutions of gradient concentration was prepared, and added 10 μL of DMSO solution of the test compound of each concentration to the cells of each well. The final concentration of the compound is 10000, 3333.3, 1111.1, 370.4, 123.5, 41.2, 13.7, 4.6, 1.5, 0 nM (the final concentration of DMSO is 0.25%). Incubated for 96 h at 37° C. and 5% CO2. 50 μL of Cell-titer Glo working solution was added to each well, shaked and mixed, and incubated at room temperature for 10 minutes. The multi-functional microplate reader read the luminescence value, and converted the luminescence value reading into inhibition percentage.
(§2) Inhibition percentage=(maximum value−reading)/(maximum value−minimum value)*100.
(§3) The “maximum value” was the DMSO control, the “minimum value” indicates the cell-free control group.
(§4) Graphpad Prism software was used to perform curve fitting and obtain IC50 value.
Refer to table 3 for the IC50 data of some compounds in the Examples for inhibiting H358 cells.

MIA-PACA-2 cells = test: Cell proliferation assay, MIA-PACA-2 cells (Cell-titer Glo); type: cell-based; details: Homo sapiens, 96 h incubation
Protocol: as §1, with “the MIA-PACA-2” for “the H358”, “cells into” for “cells on”, “plate at 600 cells, 160” for “plate with 2000 cells and 190”, “added 40” for “added 10”, “10000, 2000, 400, 80, 16, 3.2, 0.64, 0.12, 0.025,” for “10000, 3333.3, 1111.1, 370.4, 123.5, 41.2, 13.7, 4.6, 1.5,”
as §2, §3, §4
Refer to Table 3 for the IC50 data of some compounds in the examples inhibiting MIA-PACA-2 cells.

IC50 (H358 cells)	IC50 (MIA-PACA-2 cells)	Structure (SMILES)
9.6 nM	10.9 nM	C=CC(=O)N1CC2(CCN(c3nc(C4CCN(CCOC)CC4)nc4c(OCC(F)(F)F)c(-c5c(C)ccc6[nH]ncc56)c(CC)cc34)CC2)C1 [Example 35, 1-(7-(6-ethyl-2-(1-(2-methoxyethyl)piperidin-4-yl)-7-(5-methyl-1H-indazol-4-yl)-8-(2,2,2-trifluoroethoxy)quinazolin-4-yl)-2,7-diazaspiro[3.5]nonan-2-yl)prop-2-en-1-one]
37 nM	34 nM	C=CC(=O)N1CC2(CCN(c3nc(C4CN(CC)C4)nc4c(OCC(F)(F)F)c(-c5c(C)ccc6[nH]ncc56)c(CC)cc34)CC2)C1 [Example 46, 1-(7-(6-ethyl-2-(1-ethyl-azacyclobutane-3-yl)-7-(5-methyl-1H-indazole-4-yl)-8-(2,2,2-trifluoroethoxy)quinazolin-4-yl)-2,7-diazarospiro [3.5]nonan-2-yl) propyl-2-en-1-one]
39 nM	36.9 nM	C=CC(=O)N1CC2(CCN(c3nc(C4CCN(C)CC4)nc4c(OCC(F)F)c(-c5c(C)ccc6[nH]ncc56)c(Cl)cc34)CC2)C1 [Example 34]
29.3 nM	43.5 nM	C=CC(=O)N1CC2(CCN(c3nc(C4CCN(C(=O)OC)CC4)nc4c(OCC(F)(F)F)c(-c5c(C)ccc6[nH]ncc56)c(C=C)cc34)CC2)C1 [Example 62, Methyl 4-(4-(2-acryloyl-2,7-diazspiro [3.5]nonan-7-yl)-7-(5-methyl-1H-indazole-4-yl)-8-(2,2,2-trifluoroethoxy)-6-vinylquinazolin-2-yl) piperidine-1-carboxylic acid]
2.6 nM	3.6 nM	C=CC(=O)N1CC2(CCN(c3nc(C4CCN(CCF)CC4)nc4c(OCC(F)(F)F)c(-c5c(C)ccc6[nH]ncc56)c(C=C)cc34)CC2)C1 [Example 75, 1-(7-(2-(1-(2-(fluoroethyl))piperidin-4-yl)-7-(5-methyl-1H-indazole-4-yl)-8-(2,2,2-trifluoroethoxy)-6-vinylquinazolin-4-yl)-2,7-diazarospiro [3.5]nonan-2-yl) propyl-2-en-1-one]
11.5 nM	9.8 nM	C=CC(=O)N1CC2(CCN(c3nc(C4CCN(C)CC4)nc4c(OCC(F)F)c(-c5c(C)ccc6[nH]ncc56)c(C=C)cc34)CC2)C1 [Example 48, 1-(7-(8-(2,2-difluoroethoxy)-7-(5-methyl-1H-indazol-4-yl)-2-(1-methylpiperidin-4-yl)-6-vinylquinazolin-4-yl)-2,7-diazspiro [3.5]nonan-2-yl) propyl-2-en-1-one]
11.5 nM	8.5 nM	C=CC(=O)N1CC2(CCN(c3nc(C4CCN(C5CCN(C)CC5)CC4)nc4c(OCC(F)(F)F)c(-c5c(C)ccc6[nH]ncc56)c(C=C)cc34)CC2)C1 [Example 66, 1-(7-(7-(5-methyl-1H-indazol-4-yl)-2-(1′-methyl-[1,4-bipiperidine]-4-yl)-8-(2,2,2-trifluoroethoxy)-6-vinylquinazolin-4-yl)-2,7-diazspiro [3.5]nonan-2-yl) propyl-2-en-1-one]
17.9 nM	16.7 nM	C=CC(=O)N1CC2(CCN(c3nc(C4CCN(C)CC4)nc4c(OCC(F)(F)F)c(-c5c(C)ccc6[nH]ncc56)c(Cl)cc34)CC2)C1 [Example 32, 1-(7-(6-chloro-7-(5-methyl-1H-indazol-4-yl)-2-(1-methylpiperidin-4-yl)-8-(2,2,2-trifluoroethoxy)quinazoline-4-yl)-2,7-diazaspiro[3.5]nonan-2-yl)prop-2-en-1-one]
3.7 nM	2.1 nM	C=CC(=O)N1CC2(CCN(c3nc(C4CCN(CC)CC4)nc4c(OCC(F)(F)F)c(-c5c(C)ccc6[nH]ncc56)c(C=C)cc34)CC2)C1 [Example 9, 1-(7-(2-(1-ethylpiperidin-4-yl)-7-(5-methyl-1H-indazol-4-yl)-8-(2,2,2-trifluoroethoxy)-6-vinylquinazolin-4-yl)-2,7-diazaspiro[3.5]nonan-2-yl)prop-2-en-1-one]
